Measured values published in patent US6589755B1, “Assay for quantifying arthritic conditions” (Novartis AG, priority 1996, dated 2003).

Test system: LMW-COMP fragment
Test: LMW-COMP fragments in synovial fluid of treated arthritis patients
Type: in vivo, human
Conditions: strong anti-arthritic compound
Experimental: Twenty microliters of human synovial fluids were mixed 1:1 with SDS-PAGE loading buffer (NOVEX, San Diego, Calif.) containing 10% mercaptoethanol. The samples were boiled for 4 min. and […] applied per lane on a 14% or a 4-12% gradient SDS-PAGE Tris-Gly gel (Novex, Calif.). A separate set of these samples was also prepared for analysis under non-reducing conditions. Molecular weight markers were used to localize the molecular weight of unknowns. After electrophoresis, the samples were electrophoretically transferred onto a nitro-cellulose paper. The paper was treated with 2% bovine serum albumin (BSA) in 10 mM sodium phosphate, 0.15 M NaCl at […] (PBS) for 18 hours at 4° C.
The nitrocelluose paper was rinsed with PBS (10 mM sodium phosphate, 0.15 M NaCl at pH 7.2). […] The bound antibody was then detected using ECL or ECF substrate (Amersham Co.). The fragments were quantified using a Molecular Dynamics densitometer (Sunnyvale, Calif.). […]
A 96-well microtiter plate was coated with 0.1 ml/well of 50 ng/ml of antigen (synthetic peptide H741 without the N-terminal cysteine) in PBS for 48 to 72 h at 4° C. […] After 1 h at RT, the plate was washed 3-times with the ELISA wash buffer and the bound antibody detected by adding 100 μl/well of p-nitrophenyl phosphate substrate solution (Sigma, St. Louis, Mo.) and measuring optical density (OD) at 405 nm. […]

CN(Cc1cnc2nc(N)nc(N)c2n1)c1ccc(C(=O)N[C@@H](CCC(=O)O)C(=O)O)cc1 [methotrexate]
LMW-COMP fragment produced under treatment: less

CN1C(C(=O)Nc2ccccn2)=C(O)c2ccccc2S1(=O)=O [piroxicam]
LMW-COMP fragment produced under treatment: less
